Literature values in patent publication US20140128375A1, “B[…] AS CGRP RECEPTOR ANTAGONISTS” (priority 2006, published 2014).

Tested on: CGRP
Conditions: marmoset, electrical stimulation of the trigeminal ganglion

NCCCC[C@H](NC(=O)[C@@H](Cc1cc(Br)c(O)c(Br)c1)NC(=O)N1CCC(N2Cc3ccccc3NC2=O)CC1)C(=O)N1CCN(c2ccncc2)CC1 [BIBN4096BS]
effect on increase in facial blood flow: could be blocked
